{"source": "ChEMBL document CHEMBL1147354", "about": "“Further bioactive cembranolide diterpenes from the gorgonian Eunicea succinea” (J Nat Prod, 1993)", "type_in_all_cases": "functional, cell-based", "key": {"[1]": {"tested_on": "MCF7", "test": "Cytotoxicity against human MCF7 cells"}, "[2]": {"tested_on": "SK-MEL-5", "test": "Cytotoxicity against human SK-MEL-5 cells"}, "[3]": {"tested_on": "HCT-116", "test": "Cytotoxicity against human HCT116 cells"}, "[4]": {"tested_on": "CCRF-CEM", "test": "Cytotoxicity against human CCRF-CEM cells"}}}
{"smiles": "C=C1C(=O)O[C@H]2[C@@H](OC(C)=O)[C@H](C)CCC/C(C)=C/CC[C@@]3(C)O[C@@H]3C[C@@H]12", "values": [{"measurement": "IC50", "setting": "[1]", "value": 6, "unit": "µg/mL"}, {"measurement": "IC50", "setting": "[2]", "value": 5, "unit": "µg/mL"}, {"measurement": "IC50", "setting": "[3]", "value": 0.4, "unit": "µg/mL"}]}
{"smiles": "C=C1C(=O)OC2C(=O)[C@H](C)CCC/C(C)=C/CC[C@@]3(C)O[C@@H]3C[C@@H]12", "note": "(some centres undefined) [SUCCINOLIDE]", "values": [{"measurement": "IC50", "setting": "[1]", "value": 3, "unit": "µg/mL"}, {"measurement": "IC50", "setting": "[3]", "value": 2, "unit": "µg/mL"}, {"measurement": "IC50", "setting": "[4]", "value": "≥ 50", "unit": "µg/mL"}]}
{"smiles": "C=C1C(=O)O[C@H]2[C@H](OC(C)=O)[C@H](C)CCC/C(C)=C/CC[C@@]3(C)O[C@@H]3C[C@@H]12", "values": [{"measurement": "IC50", "setting": "[1]", "value": 8, "unit": "µg/mL"}, {"measurement": "IC50", "setting": "[3]", "value": 8, "unit": "µg/mL"}, {"measurement": "IC50", "setting": "[4]", "value": "≥ 50", "unit": "µg/mL"}]}
